Experimental findings from ChEMBL document CHEMBL4033778, “Species-Selective Pyrimidineamine Inhibitors of Trypanosoma brucei S-Adenosylmethionine Decarboxylase” (J Med Chem, 2018) are described below.

The IC50 is the concentration that inhibits the measured activity by half. In general, inhibition refers to the percentage by which the read-out fell short of the control.

For experiment [1], the target named is T1, S-adenosylmethionine decarboxylase proenzyme (Homo sapiens, UniProt P17707).
T1 sequence (P17707 whole entry): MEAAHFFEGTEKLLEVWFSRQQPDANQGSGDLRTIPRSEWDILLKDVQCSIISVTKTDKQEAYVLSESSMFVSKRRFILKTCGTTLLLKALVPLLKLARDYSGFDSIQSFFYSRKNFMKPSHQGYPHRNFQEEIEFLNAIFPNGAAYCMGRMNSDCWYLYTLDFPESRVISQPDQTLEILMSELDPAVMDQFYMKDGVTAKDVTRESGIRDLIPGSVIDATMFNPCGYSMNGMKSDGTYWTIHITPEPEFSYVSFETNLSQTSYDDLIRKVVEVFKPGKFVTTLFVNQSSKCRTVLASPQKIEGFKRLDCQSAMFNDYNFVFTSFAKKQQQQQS
As to the kind of experiment: Inhibition of recombinant human N-terminal His6-tagged AdoMetDC expressed in Escherichia coli BL21/DE3 cells at pH 7.2 by RapidFire-MS-based enzyme activity assay.

Experiment [2] can be described thus: Inhibition of recombinant Trypanosoma brucei N-terminal His6-tagged AdoMetDC/prozyme hetrodimer expressed in Escherichia coli BL21/DE3 cells at pH 7.2 by RapidFire-MS-based enzyme activity assay.
Experiment [3] has as its target T2, S-adenosylmethionine decarboxylase proenzyme (Homo sapiens) (UniProt P17707).
T2 sequence (whole entry): T1 sequence (P17707 whole entry)
Briefly: Inhibition of recombinant human N-terminal His6-tagged AdoMetDC expressed in Escherichia coli BL21/DE3 cells at 180 uM at pH 7.2 by RapidFire-MS-based enzyme activity assay.

`Nc1cc(Nc2cc(Cl)cc(Cl)c2)ccn1`: the IC50 in experiment [1] was greater than 180 µM; in experiment [2] it was 22 µM.
Turning to `Cc1cc(Sc2cc(Cl)cc(Cl)c2)nc(N)n1`, the IC50 in experiment [1] and in experiment [2] was greater than 180 µM each time.
`Nc1nc2c(c(Nc3cc(Cl)cc(Cl)c3)n1)CCC2`: the IC50 was greater than 21 µM in experiment [1] and 12 µM in experiment [2].
Regarding `CCc1cc(Br)cc(Nc2cc(C)nc(N)n2)c1`, the values for the IC50 in experiment [1] and in experiment [2] were greater than 180 µM and 7.6 µM, respectively.
Take `Cc1cc(Nc2cc(Cl)cc(Br)c2)nc(N)n1`: in experiment [2], the IC50 was determined as 2.2 µM. Besides, the inhibition in experiment [3] was determined as 33%.
As to `COc1ccc(-c2cc(Cl)cc(Nc3cc(C)nc(N)n3)c2)cc1`, the IC50 in experiment [1] is greater than 180 µM; in experiment [2], 2.3 µM.
The corresponding values for `Cc1cc(Nc2cc(F)cc(Cl)c2)nc(N)n1` are greater than 180 µM and 32 µM.
Take `CCOc1cc(Br)cc(Nc2cc(C)nc(N)n2)c1`: in experiment [2], the IC50 amounted to 6 µM. For the same molecule, the inhibition in experiment [3] was determined as 36%.
For the molecule `Cc1cc(Nc2cc(Br)c(F)c(Br)c2)nc(N)n1`, in experiment [2], the IC50 came out at 1.6 µM. Besides, the inhibition in experiment [3] came out at 43%.
Take `Cc1cc(Nc2cc(Cl)cc(-c3ccc(F)cc3)c2)nc(N)n1`: the IC50 in experiment [1] is greater than 21 µM; in experiment [2], 1.1 µM.
For `Cc1cc(Nc2cc(Cl)cc(-c3cc4ccccc4c4ccccc34)c2)nc(N)n1` the same measures were greater than 180 µM and greater than 180 µM.
For `Cc1cc(Nc2cc(Cl)c(N(C)C)c(Cl)c2)nc(N)n1` the same measures were greater than 180 µM and greater than 180 µM.
Take `Cc1cc(Nc2cc(-c3ccccc3)cc(-c3ccccc3)c2)nc(N)n1`: the half-maximal inhibitory concentration (IC50) in experiment [1] and in experiment [2] was greater than 180 µM in each case.
In the case of `Cc1cc(Nc2cc(Cl)cc(-c3cc(C(F)(F)F)cc(C(F)(F)F)c3)c2)nc(N)n1`, the 50% inhibitory concentration (IC50) in experiment [1] was greater than 180 µM; in experiment [2], 28 µM.
Turning to `Cc1cc(Nc2ccccc2)nc(N)n1`, the IC50 in experiment [1] and in experiment [2] was greater than 180 µM each time.
`Cc1cc(Nc2ccc(C(C)C)cc2)nc(N)n1`: the IC50 in experiment [1] and in experiment [2] was greater than 180 µM each time.
`Cc1cc(Nc2cc(Cl)cc(-c3cncnc3)c2)nc(N)n1`: the half-inhibitory concentration (IC50) in experiment [1] and in experiment [2] was greater than 180 µM in each case.
For `Cc1cc(Nc2cc(Cl)c(OC(F)F)c(Cl)c2)nc(N)n1`, the IC50 in experiment [1] and in experiment [2] was greater than 63 µM in each case.
Regarding `Cc1cc(C)cc(Nc2cc(C)nc(N)n2)c1`, the IC50 in experiment [1] is greater than 180 µM; in experiment [2], 141 µM.
For `Nc1nc(Nc2cc(Cl)cc(Cl)c2)cc(N2CCOCC2)n1` the same measures were greater than 180 µM and greater than 180 µM.
For `Cc1cc(Nc2cccc(F)c2)nc(N)n1` the same measures were greater than 180 µM and greater than 180 µM.
For the molecule `Cc1cc(Nc2cc(Cl)cc(-c3cc4ccccc4s3)c2)nc(N)n1`, the figures for the IC50 in experiment [1] and in experiment [2] were greater than 180 µM and 41 µM, respectively.
The corresponding values for `Cc1cc(Nc2cc(Cl)cc(-c3ccc4c(c3)OCO4)c2)nc(N)n1` are greater than 21 µM and 6.2 µM.
Consider `Cc1cc(NCc2cc(Cl)cc(Cl)c2)nc(N)n1`, for which the results for the 50% inhibitory concentration (IC50) in experiment [1] and in experiment [2] were greater than 180 µM and 139 µM, respectively.
With `Cc1cc(Nc2ccc(Cl)cc2C)nc(N)n1`, the IC50 in experiment [1] and in experiment [2] was greater than 180 µM throughout.
Regarding `CCc1cc(Nc2cc(Cl)cc(Cl)c2)nc(N)n1`, the half-inhibitory concentration (IC50) in experiment [2] was determined as 3 µM. Moreover, in experiment [3], the inhibition was 36%.
On to `Nc1cccc(Nc2cc(Cl)cc(Cl)c2)n1`, for which the IC50 in experiment [1] and in experiment [2] was greater than 180 µM in each case.
`Cc1cc(Nc2cc(Cl)cc(Cl)c2)nc(N(C)C)n1`: the IC50 in experiment [1] and in experiment [2] was greater than 180 µM each time.
For `Cc1cc(Nc2cc(F)cc(F)c2)nc(N)n1`, the IC50 in experiment [1] is greater than 180 µM; in experiment [2] it was 180 µM.
For the molecule `Cc1cc(Nc2cc(C(=O)O)cc(C(=O)O)c2)nc(N)n1`, the IC50 in experiment [1] and in experiment [2] was greater than 180 µM each time.
With `Nc1ccnc(Nc2cc(Cl)cc(Cl)c2)c1`, the IC50 in experiment [1] and in experiment [2] was greater than 180 µM throughout.
With `Cc1cc(Nc2cc(Cl)c(N3CCOCC3)c(Cl)c2)nc(N)n1`, the IC50 in experiment [1] and in experiment [2] was greater than 180 µM each time.
`Cc1cc(Nc2cc(Cl)c(Cl)c(Cl)c2)nc(N)n1`: the IC50 was greater than 63 µM in experiment [1] and 11 µM in experiment [2].
The corresponding values for `Cc1cc(Nc2cc(Cl)cc(-c3cccc(Cl)c3)c2)nc(N)n1` are greater than 180 µM and 81 µM.
As for `Cc1cc(Nc2cc(C(=O)Nc3cc(Cl)cc(Cl)c3)cc(C(=O)Nc3cc(Cl)cc(Cl)c3)c2)nc(N)n1`, the IC50 in experiment [1] and in experiment [2] was greater than 180 µM each time.
Regarding `Cc1cc(Nc2cc(Cl)c(F)c(Cl)c2F)nc(N)n1`, the figures for the half-inhibitory concentration (IC50) in experiment [1] and in experiment [2] were greater than 63 µM and 2.2 µM, respectively.
As to `Cc1cc(Nc2cc(Cl)c(C)c(Cl)c2)nc(N)n1`, the half-maximal inhibitory concentration (IC50) in experiment [1] is greater than 63 µM; in experiment [2], 20 µM.
In the case of `Cc1cc(Nc2cc(Cl)cc(-c3ccc(-c4ccccc4)cc3)c2)nc(N)n1`, the IC50 in experiment [1] was greater than 180 µM; in experiment [2], 167 µM.
For the molecule `Cc1cc(Nc2ccccc2C)nc(N)n1`, the IC50 in experiment [1] and in experiment [2] was greater than 180 µM throughout.
For `Cc1cc(Nc2cc(Cl)c(N3CCCCC3)c(Cl)c2)nc(N)n1`, the IC50 in experiment [1] and in experiment [2] was greater than 180 µM each time.
Take `Cc1cc(NCCc2cc(Cl)cc(Cl)c2)nc(N)n1`: the IC50 in experiment [2] stood at 28 µM. Also, the inhibition in experiment [3] amounted to 29%.
On to `Nc1nc(Nc2cc(Cl)cc(Cl)c2)cc(C(F)(F)F)n1`, for which the IC50 in experiment [1] and in experiment [2] was greater than 180 µM in each case.
On to `Cc1cc(Nc2cc(Cl)cc(-c3cnn(C)c3)c2)nc(N)n1`, for which the IC50 in experiment [1] is greater than 180 µM; in experiment [2] it was 164 µM.
For the molecule `Cc1cc(N(C)c2cc(Cl)cc(Cl)c2)nc(N)n1`, the IC50 in experiment [1] is greater than 180 µM; in experiment [2], 81 µM.
Turning to `CC(C)c1cc(Nc2cc(Cl)cc(Cl)c2)nc(N)n1`, the IC50 was greater than 180 µM in experiment [1] and 12 µM in experiment [2].
As for `Cc1cc(Nc2cc(Br)cc(S(F)(F)(F)(F)F)c2)nc(N)n1`, the IC50 is greater than 180 µM in experiment [1] and 8.7 µM in experiment [2].
Regarding `Cc1cc(Nc2cc(Cl)cc(-c3ccc(Cl)c(C(F)(F)F)c3)c2)nc(N)n1`, the figures for the IC50 in experiment [1] and in experiment [2] were greater than 180 µM and 53 µM, respectively.
Consider `Cc1cc(Nc2cc(Cl)cc(-c3ccc4nonc4c3)c2)nc(N)n1`, for which the IC50 in experiment [1] is greater than 180 µM; in experiment [2] it was 27 µM.
For `Cc1cc(Nc2cc(C(C)(C)C)cc(C(C)(C)C)c2)nc(N)n1` the same measures were greater than 63 µM and greater than 63 µM.
For the molecule `Cc1cc(Nc2cc(Cl)cc(C#N)c2)nc(N)n1`, the half-inhibitory concentration (IC50) in experiment [2] is 3.9 µM. Besides, the inhibition in experiment [3] was determined as 29%.
As for `CCc1cc(Nc2cc(C)nc(N)n2)cc(-c2ccc(F)cc2)c1`, the IC50 is greater than 180 µM in experiment [1] and 2.7 µM in experiment [2].
Take `Cc1cc(Nc2ccc(-c3cc(Cl)cc(Cl)c3)cc2)nc(N)n1`: the IC50 in experiment [1] and in experiment [2] was greater than 180 µM throughout.
Consider `Cc1cc(Nc2cc(Cl)cc(-c3ccc(C#N)cc3)c2)nc(N)n1`, for which the IC50 is greater than 7 µM in experiment [1] and 7.6 µM in experiment [2].
Turning to `Cc1cc(Nc2cc(Cl)cc(-c3ccc(O)cc3)c2)nc(N)n1`, the IC50 in experiment [1] was greater than 180 µM; in experiment [2] it was 143 µM.
For `Cc1cc(Nc2cc(S(C)(=O)=O)cc(S(C)(=O)=O)c2)nc(N)n1`, the half-maximal inhibitory concentration (IC50) in experiment [2] stood at 1.5 µM. Moreover, in experiment [3], the inhibition stood at 39%.
With `CCCCOc1cc(Br)cc(Nc2cc(C)nc(N)n2)c1`, the IC50 in experiment [1] is greater than 180 µM; in experiment [2], 4.5 µM.
The corresponding values for `Cc1cc(Nc2ccccc2Br)nc(N)n1` are greater than 180 µM and greater than 180 µM.
Consider `Cc1cc(Nc2cc(Cl)cc(-c3ccc(Cl)c(Cl)c3)c2)nc(N)n1`, for which the IC50 in experiment [1] was greater than 180 µM; in experiment [2], 102 µM.
As for `Cc1cc(Nc2cc(Cl)cc(-c3ccc4ccccc4c3)c2)nc(N)n1`, the concentration for half-maximal inhibition (IC50) in experiment [1] is greater than 180 µM; in experiment [2], 57 µM.
Regarding `Cc1cc(Nc2cc(Cl)cc(Cl)c2)cc(N)n1`, the IC50 in experiment [1] was greater than 180 µM; in experiment [2] it was 15 µM.
Take `Cc1ccc(-c2cc(Cl)cc(Nc3cc(C)nc(N)n3)c2)cc1`: the IC50 in experiment [1] was greater than 63 µM; in experiment [2], 4.6 µM.
For `CCc1ccc(Nc2cc(C)nc(N)n2)cc1` the same measures were greater than 180 µM and greater than 180 µM.
The corresponding values for `Cc1cc(Nc2ccc(C(F)(F)F)cc2)nc(N)n1` are greater than 180 µM and greater than 180 µM.
On to `Cc1cc(Nc2cc(Cl)cc(-c3ccc(C(F)(F)F)cc3)c2)nc(N)n1`, for which the results for the IC50 in experiment [1] and in experiment [2] were greater than 21 µM and 4.7 µM, respectively.
For `Cc1cc(Nc2cc(C(F)(F)F)cc(C(F)(F)F)c2)nc(N)n1` the same measures were greater than 180 µM and 11 µM.
Consider `Cc1cc(Nc2cc(Cl)cc(-c3ccccc3Cl)c2)nc(N)n1`, for which the IC50 in experiment [1] is greater than 180 µM; in experiment [2] it was 26 µM.
In the case of `Cc1cc(Nc2cc(Br)cc(OCC(C)C)c2)nc(N)n1`, the IC50 was greater than 180 µM in experiment [1] and 11 µM in experiment [2].
The corresponding values for `CNc1nc(C)cc(Nc2cc(Cl)cc(Cl)c2)n1` are greater than 63 µM and greater than 63 µM.
For `Cc1cc(Nc2cc(Cl)cc(S(F)(F)(F)(F)F)c2)nc(N)n1` the same measures were greater than 180 µM and 16 µM.
The corresponding values for `CSc1ccccc1Nc1cc(C)nc(N)n1` are greater than 180 µM and greater than 180 µM.
On to `Cc1cc(Nc2cc(Cl)cc(-c3ccc(Cl)cc3)c2)nc(N)n1`, for which the IC50 in experiment [1] was greater than 63 µM; in experiment [2], 1.7 µM.
